Results as given in publication doi:10.1101/2024.09.05.611349v1 (biorxiv, 2024).
≈ marks a conversion by molar mass, not a printed value.

Assays:
[1] = test system: Staphylococcus epidermidis MSSE 15-64; assay: microbe, parasite or virus in culture; parameters: species or system gram-positive clinical isolates; conditions: Staphylococcus epidermidis, MSSE1564, read-out: MIC(μg/ml) / 1b
[2] = test system: Staphylococcus epidermidis MSSE 15-58; assay: microbe, parasite or virus in culture; parameters: species or system gram-positive clinical isolates; conditions: Staphylococcus epidermidis, MSSE1558, read-out: MIC(μg/ml) / 1b
[3] = test system: Staphylococcus epidermidis MSSE 15-4; assay: microbe, parasite or virus in culture; parameters: species or system gram-positive clinical isolates; conditions: Staphylococcus epidermidis, MSSE154, read-out: MIC(μg/ml) / 1b
[4] = test system: Staphylococcus epidermidis MSSE 15-3; assay: microbe, parasite or virus in culture; parameters: species or system gram-positive clinical isolates; conditions: Staphylococcus epidermidis, MSSE153, read-out: MIC(μg/ml) / 1b
[5] = test system: Staphylococcus epidermidis MSSE 15-61; assay: microbe, parasite or virus in culture; parameters: species or system gram-positive clinical isolates; conditions: Staphylococcus epidermidis, MSSE1561, read-out: MIC(μg/ml) / 1b
[6] = test system: Staphylococcus epidermidis MSSE 15-59; assay: microbe, parasite or virus in culture; parameters: species or system gram-positive clinical isolates; conditions: Staphylococcus epidermidis, MSSE1559, read-out: MIC(μg/ml) / 1b
[7] = in vitro; conditions: Mouse plasma
[8] = in vitro; conditions: mouse, liver microsomes
[9] = test system: S. aureus ATCC 29213; assay: microbe, parasite or virus in culture; conditions: Staphylococcus aureus, ATCC29213, read-out: MIC (µg/mL)

## CCCCCOc1ccc(C(=O)NNC(=S)NC(C)=O)cc1 [1b, N-(2-(4-(n-pentoxy)benzoyl)hydrazine-1-carbonothioyl)acetamide]
[1]
  MIC: 8 µg/mL (≈ 24.7 µM)
[2]
  MIC: 1 µg/mL (≈ 3.09 µM)
[3]
  MIC: 1 µg/mL (≈ 3.09 µM)
[4]
  MIC: 1 µg/mL (≈ 3.09 µM)
[5]
  MIC: 1 µg/mL (≈ 3.09 µM)
[6]
  MIC: 1 µg/mL (≈ 3.09 µM)
[7]
  Mouse plasma T1/2: >2 h
[8]
  microsomal CLint: 49 µL/min/mg
[9]
  MIC: 0.78 µg/mL (≈ 2.41 µM)
